In brackets after ≈: the same amount, converted by molar mass.
Assays:
Vero = assay: Cytotoxicity against african green monkey Vero cells by sulforhodamine B assay; type: cell-based; details: Chlorocebus sabaeus
NCI-H187 = assay: Cytotoxicity against human NCI-H187 cells by sulforhodamine B assay; type: functional, cell-based
[1] = tested on: Mycobacterium tuberculosis; assay: Antimycobacterial activity against Mycobacterium tuberculosis H37Ra after […] by microplate alamar Blue assay; type: functional
KB = assay: Cytotoxicity against human KB cells by sulforhodamine B assay; type: functional, cell-based

| SMILES | IC50 (Vero) [µg/mL] | IC50 (NCI-H187) [µg/mL] | MIC [1] [µg/mL] | IC50 (KB) [µg/mL] |
| --- | --- | --- | --- | --- |
| CC(C)=CCc1c2c(c(O)c3c(=O)c(O)c(-c4ccc(O)cc4)oc13)C=CC(C)(C)O2 [DEHYDROLUPINIFOLINOL] | 11.1 (≈ 26.4 µM) | 3.9 (≈ 9.28 µM) | 12.5 (≈ 29.7 µM) | 5.8 (≈ 13.8 µM) |
| COc1cccc2c1C(=O)c1c(O)c3c(c(O)c1C2=O)C[C@@](O)(C(=O)CO)C[C@@H]3O[C@H]1C[C@H](N)[C@H](O)[C@H](C)O1 [DOXORUBICIN] | – | 0.042 (≈ 0.0773 µM) | – | 0.12 (≈ 0.221 µM) |
| Cc1c2ccncc2c(C)c2c1[nH]c1ccccc12 [ELLIPTECINE] | – | 0.44 (≈ 1.79 µM) | – | 0.37 (≈ 1.5 µM) |
| CC(C)=CCc1c(O)c2c(c3c1OC(C)(C)C=C3)O[C@H](c1ccc(O)cc1O)CC2=O [ERIOSEMAONE A] | – | 6 (≈ 14.2 µM) | 12.5 (≈ 29.6 µM) | 5.8 (≈ 13.7 µM) |
| CC(C)=CCc1c2c(c(O)c3c1O[C@H](c1ccc(O)cc1O)CC3=O)C=CC(C)(C)O2 [FLEMICHIN D] | – | 2.1 (≈ 4.97 µM) | 12.5 (≈ 29.6 µM) | 3.3 (≈ 7.81 µM) |
| NNC(=O)c1ccncc1 [ISONIAZID] | – | – | 0.023 (≈ 0.168 µM) | – |
| COc1ccc([C@H]2Oc3c(CC=C(C)C)c4c(c(O)c3C(=O)[C@@H]2O)C=CC(C)(C)O4)cc1 [KHONKLONGINOL A] | 7.9 (≈ 18.1 µM) | 3 (≈ 6.87 µM) | 25 (≈ 57.3 µM) | 3.1 (≈ 7.1 µM) |
| COc1ccc([C@H]2Oc3c(CC=C(C)C)c4c(c(O)c3C(=O)[C@H]2O)C=CC(C)(C)O4)cc1 [KHONKLONGINOL B] | 6.9 (≈ 15.8 µM) | 4.3 (≈ 9.85 µM) | 50 (≈ 115 µM) | 3.8 (≈ 8.71 µM) |
| COc1ccc(-c2oc3c(CC=C(C)C)c4c(c(O)c3c(=O)c2O)C=CC(C)(C)O4)cc1 [KHONKLONGINOL F] | 7 (≈ 16.1 µM) | 2.4 (≈ 5.52 µM) | 100 (≈ 230 µM) | 6.7 (≈ 15.4 µM) |
| COc1ccc([C@@H]2CC(=O)c3c(O)c4c(c(CC=C(C)C)c3O2)OC(C)(C)C=C4)c(O)c1 [KHONKLONGINOL H] | 6.4 (≈ 14.7 µM) | 3.3 (≈ 7.56 µM) | 25 (≈ 57.3 µM) | 5.4 (≈ 12.4 µM) |
| CC(C)=CCc1c2c(c(O)c3c1O[C@H](c1ccc(O)cc1)[C@@H](O)C3=O)C=CC(C)(C)O2 [LUPINIFOLINOL] | – | 3.5 (≈ 8.28 µM) | 25 (≈ 59.2 µM) | 1.73 (≈ 4.09 µM) |
| CC(C)=CCc1c2c(c(O)c3c1O[C@H](c1ccc(O)cc1)CC3=O)C=CC(C)(C)O2 [LUPINIFOLIN] | – | 6.5 (≈ 16 µM) | 12.5 (≈ 30.8 µM) | 2.4 (≈ 5.9 µM) |
| CN[C@@H]1[C@H](O[C@H]2[C@H](O[C@H]3[C@H](O)[C@@H](O)[C@H](N=C(N)N)[C@@H](O)[C@@H]3N=C(N)N)O[C@@H](C)[C@]2(O)C=O)O[C@@H](CO)[C@H](O)[C@H]1O [STREPTOMYCIN] | – | – | 0.156 (≈ 0.268 µM) | – |
